Test results as given in patent US8183246B2, “Acyclically substituted furopyrimidine derivatives and use thereof” (Bayer Intellectual Property GmbH, priority 2005, dated 2012).

molecular target: T1, Prostacyclin Receptors (IP Receptors) of Human Thrombocyte Membranes (Homo sapiens, UniProt P43119); test: Binding to prostacyclin receptors (IP receptors) of human thrombocyte membranes (3H-Iloprost displacement); details: 3 nM 3H-Iloprost, 300-1000 μg/ml human thrombocyte membranes, 60 min, room temperature
T1 construct: Thrombocyte membranes are obtained by centrifuging 50 ml human blood; tissue Maco Pharma, Langen (buffy coats); host or cells: human thrombocyte (platelet) membranes from human blood
Protocol: B-1. Studies of Binding to Prostacyclin Receptors (IP Receptors) of Human Thrombocyte Membranes
Thrombocyte membranes are obtained by centrifuging 50 ml human blood (Buffy coats with CDP Stabilizer, from Maco Pharma, Langen) for 20 min at 160×g. Remove the supernatant (platelet-rich plasma, PRP) and then centrifuge again at 2000×g for 10 min at room temperature. Resuspend the sediment in 50 mM tris-(hydroxymethyl)-aminomethane, which has been adjusted to a pH of 7.4 with 1 N hydrochloric acid, and store at −20° C. overnight. On the next day, centrifuge the suspension at 80000×g and 4° C. for 30 min. Discard the supernatant. Resuspend the sediment in 50 mM tris-(hydroxymethyl)-aminomethane/hydrochloric acid, 0.25 mM ethylene diamine tetraacetic acid (EDTA), pH 7.4, and then centrifuge once again at 80000×g and 4° C. for 30 min. Take up the membrane sediment in binding buffer (50 mM tris-(hydroxymethyl)-aminomethane/hydrochloric acid, 5 mM magnesium chloride, pH 7.4) and store at −70° C. until the binding test.
For the binding test, incubate 3 nM ^3H-Iloprost (592 GBq/mmol, from AmershamBioscience) for 60 min with 300-1000 μg/ml human thrombocyte membranes per charge (max. 0.2 ml) in the presence of the test substances at room temperature. After stopping, add cold binding buffer to the membranes and wash with 0.1% bovine serum albumin. After adding Ultima Gold Scintillator, quantify the radioactivity bound to the membranes using a scintillation counter. The nonspecific binding is defined as radioactivity in the presence of 1 μM Iloprost (from Cayman Chemical, Ann Arbor) and is as a rule <25% of the bound total radioactivity. The binding data (IC50 values) are determined using the program GraphPad Prism Version 3.02.

T1 sequence (P43119 whole entry): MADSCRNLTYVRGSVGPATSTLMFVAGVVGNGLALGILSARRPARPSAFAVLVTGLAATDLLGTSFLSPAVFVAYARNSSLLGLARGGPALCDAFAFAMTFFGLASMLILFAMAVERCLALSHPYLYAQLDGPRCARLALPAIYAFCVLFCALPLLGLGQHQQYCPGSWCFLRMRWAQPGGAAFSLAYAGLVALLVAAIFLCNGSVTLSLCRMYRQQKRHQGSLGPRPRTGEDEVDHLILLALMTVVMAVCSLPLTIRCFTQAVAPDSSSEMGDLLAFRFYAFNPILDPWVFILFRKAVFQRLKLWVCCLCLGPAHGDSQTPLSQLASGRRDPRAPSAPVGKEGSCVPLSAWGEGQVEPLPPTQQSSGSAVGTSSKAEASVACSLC

SMILES	IC50 [µM]
COc1ccc(-c2c(-c3ccccc3)oc3ncnc(NCCCOCCc4nnn[nH]4)c23)cc1 [Example 15, 5-(4-Methoxyphenyl)-6-phenyl-N-{3-[2-(1H-tetrazol-5-yl)ethoxy]propyl}furo[2,3-d]pyrimidine-4-amine]	0.082
COc1ccc(-c2c(-c3ccccc3Cl)oc3ncnc(NCCCCCC(=O)O)c23)cc1 [Example 117, 6-{[6-(2-Chlorophenyl)-5-(4-methoxyphenyl)furo[2,3-d]pyrimidin-4-yl]amino}hexanoic acid]	0.084
COc1ccc(-c2c(-c3ccccc3)oc3ncnc(OCC(C)COCC(=O)O)c23)cc1 (single isomer, unassigned; enantiomer 1) [Example 128, (+)-(3-{[5-(4-Methoxyphenyl)-6-phenylfuro[2,3-d]pyrimidin-4-yl]oxy}-2-methylpropoxy)acetic acid (Enantiomer 1)]	0.033
COC(=O)CCCCCN(C)c1ncnc2oc(-c3ccccc3)c(-c3ccc(OC)cc3)c12 [Example 45, 6-{[5-(4-Methoxyphenyl)-6-phenylfuro[2,3-d]pyrimidin-4-yl](methyl)amino}hexanoic acid methyl ester]	0.895
COc1ccc(-c2c(-c3ccccc3)oc3ncnc(OC[C@H](C)OCCC(=O)O)c23)cc1 [Example 83, (+)-3-{[(2S)-2-{[5-(4-Methoxyphenyl)-6-phenylfuro[2,3-d]pyrimidin-4-yl]oxy}-1-methylethoxy]-oxy}propionic acid]	0.02
COc1ccc(-c2c(-c3ccccc3)oc3ncnc(OCCCCCc4nnn[nH]4)c23)cc1 [Example 14, 5-(4-Methoxyphenyl)-6-phenyl-4-{[5-(1H-tetrazol-5-yl)pentyl]oxy}-furo[2,3-d]pyrimidine]	0.049
COc1ccc(-c2c(-c3ccccc3)oc3ncnc(OCC(C)(C)COCC(=O)O)c23)cc1 [Example 95, (3-{[5-(4-Methoxyphenyl)-6-phenylfuro[2,3-d]pyrimidin-4-yl]oxy}-2,2-dimethylpropoxy)acetic acid]	0.01
COc1ccc(-c2c(-c3ccccc3)oc3ncnc(NCCCCCC(=O)O)c23)cc1 [Example 1, 6-{[5-(4-Methoxyphenyl)-6-phenylfuro[2,3-d]pyrimidin-4-yl]amino}hexanoic acid]	0.206
C=Cc1ccc(-c2c(-c3ccccc3)oc3ncnc(NCCCCCC(=O)O)c23)cc1 [Example 33]	0.064
COc1ccc(-c2c(-c3ccccc3)oc3ncnc(OC(C)CC(C)OCC(=O)O)c23)cc1 (single isomer, unassigned; enantiomer 2) [Example 146, (3-{[5-(4-Methoxyphenyl)-6-phenylfuro[2,3-d]pyrimidin-4-yl]oxy}-1-methylbutoxy)acetic acid (Enantiomer 2)]	0.007
COc1ccc(-c2c(-c3ccccc3)oc3ncnc(NCCCCCc4nnn[nH]4)c23)cc1 [Example 4, 5-(4-Methoxyphenyl)-6-phenyl-N-[5-(1H-tetrazol-5-yl)pentyl]furo[2,3-d]pyrimidine-4-amine]	0.034
CCc1ccc(-c2c(-c3ccccc3)oc3ncnc(NCCCCCC(=O)OC)c23)cc1 [Example 36]	0.217
CCOC(=O)COC[C@@H](C)COc1ncnc2oc(-c3ccccc3F)c(-c3ccc(OC)cc3)c12 [Example 152, (−)-{[(2R)-3-{[5-(4-Methoxyphenyl)-6-(2-fluorophenyl)furo[2,3-d]pyrimidin-4-yl]oxy}-2-methyl-propyl]oxy}acetic acid ethyl ester]	0.0037
COc1ccc(-c2c(-c3ccccc3)oc3ncnc(O[C@H](C)CCCCC(=O)O)c23)cc1 (single isomer, unassigned; enantiomer 2) [Example 69, (−)-6-{[5-(4-Methoxyphenyl)-6-phenylfuro[2,3-d]pyrimidin-4-yl]oxy}heptanoic acid (Enantiomer 2)]	0.009

More lines, now with the values ahead:

IC50 [µM]	SMILES
0.037	COC(=O)CCCCC(C)Oc1ncnc2oc(-c3ccccc3)c(-c3ccc(OC)cc3)c12 (racemic) [Example 63, (+/−)-6-{[5-(4-Methoxyphenyl)-6-phenylfuro[2,3-d]pyrimidin-4-yl]oxy}heptanoic acid methyl ester]
0.0038	CCc1ccc(-c2c(-c3ccccc3F)oc3ncnc(OC[C@H](C)COCC(=O)O)c23)cc1 [Example 154, (−)-{[(2R)-3-{[5-(4-Ethylphenyl)-6-(2-fluorophenyl)furo[2,3-d]pyrimidin-4-yl]oxy}-2-methyl-propyl]oxy}acetic acid]
0.052	CCc1ccc(-c2c(-c3ccccc3)oc3ncnc(O[C@@H](C)CN(C)CCCC(=O)O)c23)cc1 [Example 140, (+)-4-{[(2S)-2-{[5-(4-Ethylphenyl)-6-phenylfuro[2,3-d]pyrimidin-4-yl]oxy}propyl](methyl)-amino}butyric acid]
0.47	CCc1ccc(-c2c(-c3ccccc3)oc3ncnc(O[C@@H](C)COCCC(=O)O)c23)cc1 [Example 85, (+)-3-{[2-{[5-(4-Ethylphenyl)-6-phenylfuro[2,3-d]pyrimidin-4-yl]oxy}propyl]oxy}propionic acid]
0.051	COC(=O)CCCCCNc1ncnc2oc(-c3ccccc3F)c(-c3ccc(OC)cc3)c12 [Example 113, 6-{[6-(2-Fluorophenyl)-5-(4-methoxyphenyl)furo[2,3-d]pyrimidin-4-yl]amino}hexanoic acid methyl ester]
0.048	COc1ccc(-c2c(-c3ccccc3C)oc3ncnc(NCCCCCC(=O)O)c23)cc1 [Example 122, 6-{[5-(4-Methoxyphenyl)-6-(2-methylphenyl)furo[2,3-d]pyrimidin-4-yl]amino}hexanoic acid]
0.0025	CCc1ccc(-c2c(-c3ccccc3F)oc3ncnc(O[C@H](C)CCCCC(=O)O)c23)cc1 [Example 142, (−)-(6R)-6-{[5-(4-Ethylphenyl)-6-(2-fluorophenyl)furo[2,3-d]pyrimidin-4-yl]oxy}heptanoic acid]
0.022	CCc1ccc(-c2c(-c3ccccc3)oc3ncnc(O[C@H](C)CCOCC(=O)O)c23)cc1 [Example 80, (−)-{[3-{[5-(4-Ethylphenyl)-6-phenylfuro[2,3-d]pyrimidin-4-yl]oxy}butyl]oxy}acetic acid]
0.013	CCc1ccc(-c2c(-c3ccccc3F)oc3ncnc(OC[C@H](C)OCCC(=O)O)c23)cc1 [Example 156, 3-[(1S)-2-{[5-(4-Ethylphenyl)-6-(2-fluorophenyl)furo[2,3-d]pyrimidin-4-yl]oxy}-1-methylethoxy]-propionic acid]
0.053	COc1ccc(-c2c(-c3ccccc3F)oc3ncnc(O[C@@H](C)CN(C)CCCC(=O)O)c23)cc1 [Example 138, (+)-4-{[(2S)-2-{[6-(2-Fluorophenyl)-5-(4-methoxyphenyl)furo[2,3-d]pyrimidin-4-yl]oxy}propyl]-(methyl)amino}butyric acid]
0.219	COc1ccc(-c2c(-c3ccccc3)oc3ncnc(OC(C)CN(C)CCCC(=O)O)c23)cc1 (racemic) [Example 92, (+/−)-4-[(2-{[5-(4-Methoxyphenyl)-6-phenylfuro[2,3-d]pyrimidin-4-yl]oxy}propyl)(methyl)-amino]butanoic acid]
